Assays:
Assay type in all cases: cell-based, Human
Jurkat cells [1] = test: Extracellular ROS level of drug-treated Jurkat cells measured with the nanowire biosensor; details: t=6 hours, normalized by the number of live cells
Procedure: For measurements of cellular metabolites/activity, cells were cultured in the chip, namely, in the culture compartment thereof (see, for example, FIG. 1A), while placing the chip in an incubator during measurements. A sample was introduced to the sensing compartment at 20 μl min^-1 by using a syringe pump. Human T lymphocytes, Jurkat (TIB-152, ATCC), were cultured and incubated at 37° C. under a humidified 5% CO2 atmosphere. The culture medium used was RPMI 1640 medium (52400, GIBCO) with 10% fetal bovine serum (FBS; 04-001-1A, Biological Industry) and 1% penicillin/streptomycin (15140, GIBCO). During experiments, cells were re-suspended in phenol red-free medium (11835-063, GIBCO) in the presence or absence of a drug, either methotrexate hydrate (MTX; […], SIGMA) or 2-deoxy-D-glucose (2DG; […], SIGMA), at a density of 1×10^6 cells/ml. Cellular samples were dispensed into the wells of the sensing chip (see FIGS. 1A and 1B) in an incubator. 24-hour monitoring of metabolic activity of drug-treated Jurkat cells by measuring extracellular ROS levels using the nanowire biosensor, was performed and the obtained data is presented in FIGS. 6A-G. Measured ROS levels were normalized by the number of live cells.

Jurkat cells [2] = test: Cell proliferation rate / viability of drug-treated Jurkat cells (trypan blue count); details: for cell viability: 24-hour viability observation
Procedure: During experiments, cells were re-suspended in phenol red-free medium (11835-063, GIBCO) in the presence or absence of a drug, either methotrexate hydrate (MTX; […], SIGMA) or 2-deoxy-D-glucose (2DG; […], SIGMA), at a density of 1×10^6 cells/ml. Cell viability was estimated by using a hemocytometer to count trypan blue-stained cells. Relative cell count, presented in FIGS. 6B and 6E-6F, is a ratio of the cell count at t=24 hours to the initial cell count.

Jurkat cells [3] = test: pH sensing of drug-treated Jurkat cells (reductant-added medium); details: compared with the control
Description: A conversion of the modified FET into a pH sensor was achieved by using a reductant-added solution. After supplementing a culture medium with 0.1% v/v DEHA to reduce the modified FET surface, surface proton density varied by protonation or by deprotonation dominantly changes the measured current.
For pH sensing, 0.1% v/v DEHA was supplemented in the sensing medium to reduce the 9,10-anthraquinone monolayer on the FET surface to obtain 9,10-dihydroxyanthracene (see also FIG. 1d) and H2O2 simultaneously. Therefore, no significant amount of H2O2 in a DEHA-supplemented medium altered a measured signal. As a result, surface proton density, varied by protonation or by deprotonation, dominantly changes an acquired signal.

Jurkat cells [4] = test: Extracellular lactate level of drug-treated Jurkat cells (lactate oxidase, nanowire biosensor); details: after 24 hours
Procedure: For lactate sensing, 0.1 unit/ml of lactate oxidase (LOX; L0638, SIGMA) was added in phenol red-free medium to convert lactate to pyruvate and H2O2 before lactate reaches the FET array (as depicted in FIG. 1D).
During experiments, cells were re-suspended in phenol red-free medium (11835-063, GIBCO) in the presence or absence of a drug, either methotrexate hydrate (MTX; M8407, SIGMA) or 2-deoxy-D-glucose (2DG; D6134, SIGMA), at a density of 1×10^6 cells/ml.
The correlation between extracellular lactate level of 2DG-treated Jurkat cells and a resultant cell proliferation rate after 24 hours was investigated.

CN(Cc1cnc2nc(N)nc(N)c2n1)c1ccc(C(=O)N[C@@H](CCC(=O)O)C(=O)O)cc1 [MTX, methotrexate hydrate] was tested, and the ROS level (Jurkat cells [1]) was “noticeable decrease” and the cell viability (Jurkat cells [2]) was “anti-proliferative activity”.

In the case of O=CC[C@@H](O)[C@H](O)[C@H](O)CO [2DG, 2-deoxy-D-glucose], the “pH of cultured cells” value (Jurkat cells [3]) is reported as “more basic than the control”, the cellular lactate secretion (Jurkat cells [4]) is reported as “decreased” and the ROS level (Jurkat cells [1]) is reported as “noticeable decrease”. For the same molecule, the cell viability (Jurkat cells [2]) was “anti-proliferative activity” and the cell proliferation rate (Jurkat cells [2]; after 24 hours, relative cell count) was “reduced proliferation rate”.
